US10022440B2, “Materials and methods for modulating immune responses” (UNIVERSITY OF FLORIDA RESEARCH FOUNDATION, INCORPORATED, priority 2011, dated 2018)

Legend:
whole bone marrow cells = experiment: In vitro migration assay toward GM-CSF, bone marrow cells; format: cell-based, mouse; conditions: for increase in cell migration: after 24 hrs, in the presence of GM-CSF, n=3 per group
Experimental: (§1) An in vitro migration assay was performed to evaluate the migratory capacity of splenocytes and bone marrow cells toward GM-CSF. NOD, non-obese resistant (NOR), and C57/BL6 (n=3 per group) mouse cells were used in this assay.

splenocytes = experiment: In vitro migration assay toward GM-CSF, splenocytes; format: cell-based, mouse; conditions: for increase in cell migration: after 24 hrs, in the presence of GM-CSF, n=3 per group
Experimental: as §1

Substance: GM-CSF
- increase in cell migration (whole bone marrow cells; C57/BL6 whole bone marrow cells): 100%
- cell migration (whole bone marrow cells; NOD bone marrow cells, compared with NOR and C57/BL6 bone marrow cells): migrated in a similar manner
- increase in cell migration (whole bone marrow cells; NOR whole bone marrow cells): 100%
- increase in cell migration (splenocytes; C57/BL6 splenocytes): 100%
- migration ratios with or without GM-CSF (splenocytes; NOD splenocytes, p<0.05): no difference
- increase in cell migration (splenocytes; NOR splenocytes): 100%
